In US10080739B2, “Aryl imidazoles and their use as anti-cancer agents” (Aptose Biosciences Inc., priority 2003, dated 2018):

Assays:
[1] = target: T1, SAPK2a (Homo sapiens, UniProt Q16539); assay: kinase profiler, SAPK2a; assay type: biochemical; conditions: 10 μM compound, 100 μM ATP, mean of % control
T1 construct: purchased Upstate Biotechnologies (kinase profiler service)
Protocol: (§1) Compound 45 was tested for its ability to function as a kinase inhibitor using the kinase profiler service from Upstate Biotechnologies. The general protocol employed is as follows: recombinant kinases were incubated with specific substrates, 10 mM MgAcetate, and [γ-^33P-ATP]. The reaction was initiated by the addition of MgATP mix. After incubation at room temperature for 40 minutes, the reaction was stopped by the addition of 5 μl of a 3% phosphoric acid solution. 10 μl of the reaction was then spotted on to a P30 filtermat and washed 3 times for 5 min. in 75 mM phosphoric acid and once in methanol prior to drying and scintillation counting. Each reaction was performed in duplicate with 100 μM ATP −/+10 μM compound 45. Results are presented in Table IV and are expressed as the mean of % control (no compound). PI 3-kinase-γ (PI3K-γ) activity was determined with the PIProfiler™ assay, which measures the binding of the GRP1 pleckstrin homology (PH) domain to PIP3, the product of PI3K acting on its physiological substrate PIP2.

[2] = target: T2, PI3K-α (Homo sapiens, UniProt P42336); assay: kinase profiler, PI3K-α; assay type: biochemical; conditions: 10 μM compound, mean of % control
T2 construct: purchased Upstate Biotechnologies (kinase profiler service)

[3] = target: T3, MSK1 (Homo sapiens, UniProt O75582); assay: kinase profiler, MSK1; assay type: biochemical; conditions: 10 μM compound, 100 μM ATP, mean of % control
T3 construct: purchased Upstate Biotechnologies (kinase profiler service)
Protocol: as §1

[4] = target: T4, BRK (Homo sapiens, UniProt Q13882); assay: kinase profiler, BRK; assay type: biochemical; conditions: 10 μM compound, 100 μM ATP, mean of % control
T4 construct: purchased Upstate Biotechnologies (kinase profiler service)
Protocol: as §1

[5] = target: T5, IKKβ (Homo sapiens, UniProt O14920); assay: kinase profiler, IKKβ; assay type: biochemical; conditions: 10 μM compound, 100 μM ATP, mean of % control
T5 construct: purchased Upstate Biotechnologies (kinase profiler service)
Protocol: as §1

[6] = target: T6, PI 3-kinase-γ (PI3K-γ) (Homo sapiens, UniProt P48736); assay: PIProfiler assay, PI3K-γ; assay type: biochemical; conditions: PI3K[…] (PI3Kγ), 10 μM compound, mean of % control
T6 construct: purchased Upstate Biotechnologies (kinase profiler / PIProfiler service)
Protocol: as §1

[7] = target: T7, MKK4 (Mus musculus, UniProt P47809); assay: kinase profiler, MKK4; assay type: biochemical, human; conditions: 10 μM compound, 100 μM ATP, mean of % control
T7 construct: purchased Upstate Biotechnologies (kinase profiler service)
Protocol: as §1

[8] = target: T8, MAPKAP-K2 (Homo sapiens, UniProt P49137); assay: kinase profiler, MAPKAP-K2; assay type: biochemical; conditions: 10 μM compound, 100 μM ATP, mean of % control
T8 construct: purchased Upstate Biotechnologies (kinase profiler service)
Protocol: as §1

[9] = test system: panel of 60 human cancer cell lines; assay: NCI/DTP in vitro anticancer screen, 60 cell lines; assay type: cell-based; conditions: 60 cell; NCI panel of 60 human cancer cell lines, value per compound (FIG. 10A); read-out: GI50 (growth inhibition by 50%)
Protocol: The twenty-three compounds of Formula I shown below were evaluated for their antiproliferative effects in a panel of 60 human cancer cell lines as part of the in vitro anticancer screening services provided by the DTP (Developmental Therapeutics Program) of the US National Cancer Institute (NCI) U.S. National Cancer Institute (NCI) of the National Institutes of Health (NIH) in […], Md.
The NCI conducts a standard 48/72 hour 60 cell line assay and an in vitro time course assay as described in Alley et al. (Cancer Res (1988) 48:589). In the standard 60 cell line assay, a minimum of 5 concentrations of the test compound are tested at 10-fold dilutions against 60 cell lines and cell growth is assayed at 48 and 72 hours using a sulphorhodamine B assay. For the time course analysis, tumour cells are treated with the test compound at various time points, then washed and grown in medium free of the test compound until the end of the experiment at 144 hrs. This assay employs 20% FBS to better approximate the minimum c×t (concentrations and times) test compound exposure conditions that are required to achieve activity in vivo. Cell growth is quantified by an MTT assay (similar to the XTT assay described above) and the concentration of the test compound required for growth inhibition is determined. […]

[10] = target: T9, JNK1α1 (Homo sapiens, UniProt P45983); assay: kinase profiler, JNK1α1; assay type: biochemical; conditions: 10 μM compound, 100 μM ATP, mean of % control
T9 construct: purchased Upstate Biotechnologies (kinase profiler service)
Protocol: as §1

[11] = test system: HT-29 colon cancer cells; assay: growth suppression of HT-29 colon cancer cells; assay type: cell-based; conditions: Homo sapiens
[12] = target: T10, PKA (Homo sapiens, UniProt P17612); assay: kinase profiler, PKA; assay type: biochemical; conditions: 10 μM compound, 100 μM ATP, mean of % control
T10 construct: purchased Upstate Biotechnologies (kinase profiler service)
Protocol: as §1

[13] = target: T11, MINK (Homo sapiens, UniProt Q8N4C8); assay: kinase profiler, MINK; assay type: biochemical; conditions: 10 μM compound, 100 μM ATP, mean of % control
T11 construct: purchased Upstate Biotechnologies (kinase profiler service)
Protocol: as §1

[14] = target: T12, ErbB4 (Homo sapiens, UniProt Q15303); assay: kinase profiler, ErbB4; assay type: biochemical; conditions: 10 μM compound, 100 μM ATP, mean of % control
T12 construct: purchased Upstate Biotechnologies (kinase profiler service)
Protocol: as §1

[15] = test system: human colon carcinoma cells (HT-29); assay: XTT cell proliferation assay, HT-29 cells, 48 h; assay type: cell-based; conditions: read-out: % Survival
Protocol: Selected compounds of Formula I were tested for anti-cancer activity in vitro using a human colon carcinoma cells (HT-29) and human non-small cell lung cancer cells (H460). The cells were maintained in α-MEM medium (Wisent, St-Bruno, Qc) supplemented with 10% FBS, and grown at 37° C. in an atmosphere of 5% CO2. Cells were transferred onto 150 mm tissue culture plates and grown until sub-confluency (70-80%) prior to their use.
The anti-cancer activity in vitro was evaluated by a cell proliferation assay based on the ability of live cells to reduce the tetrazolium salt XTT to orange coloured compounds of formazan (XTT cell proliferation kit II, Roche Applied Science, Montreal, QC).
Approximately 4×10^3 colon cancer cells (HT-29) or 2×10^3 non-small cell lung cancer cells (NCI-H460) in 100 μl of complete culture medium were plated onto 96-well microtiter plates and incubated overnight at 37° C. The medium was then removed by inverting the plate and patting on a sterile absorbent cloth. Fifty μl of medium containing the test compound at either 25 or 100 μM, were added to the wells containing cells and incubated at 37° C. in an atmosphere of 5% CO2 for 48 h. Following incubation, 25 μl of an XTT reaction mixture (XTT at a final concentration of 0.3 mg/ml) were added to each well and the plates were incubated for a further 4 h. The absorbance of each sample was then determined at a wavelength of 490 nm/650 nm as reference. Each compound was tested in duplicate and the results are reported as averages.

[16] = target: T13, Met (Homo sapiens, UniProt P08581); assay: kinase profiler, Met; assay type: biochemical; conditions: 10 μM compound, 100 μM ATP, mean of % control
T13 construct: purchased Upstate Biotechnologies (kinase profiler service)
Protocol: as §1

[17] = target: T14, CDK6/cyclinD3 (Homo sapiens, UniProt Q00534); assay: kinase profiler, CDK6/cyclinD3; assay type: biochemical; conditions: 10 μM compound, 100 μM ATP, mean of % control
T14 construct: purchased Upstate Biotechnologies (kinase profiler service)
Protocol: as §1

[18] = target: T15, NEK2 (Homo sapiens, UniProt P51955); assay: kinase profiler, NEK2; assay type: biochemical; conditions: 10 μM compound, 100 μM ATP, mean of % control
T15 construct: purchased Upstate Biotechnologies (kinase profiler service)
Protocol: as §1

[19] = target: T16, PKCμ (Homo sapiens, UniProt Q15139); assay: kinase profiler, PKCμ; assay type: biochemical; conditions: 10 μM compound, 100 μM ATP, mean of % control
T16 construct: purchased Upstate Biotechnologies (kinase profiler service)
Protocol: as §1

T13 sequence (P08581 25-1390): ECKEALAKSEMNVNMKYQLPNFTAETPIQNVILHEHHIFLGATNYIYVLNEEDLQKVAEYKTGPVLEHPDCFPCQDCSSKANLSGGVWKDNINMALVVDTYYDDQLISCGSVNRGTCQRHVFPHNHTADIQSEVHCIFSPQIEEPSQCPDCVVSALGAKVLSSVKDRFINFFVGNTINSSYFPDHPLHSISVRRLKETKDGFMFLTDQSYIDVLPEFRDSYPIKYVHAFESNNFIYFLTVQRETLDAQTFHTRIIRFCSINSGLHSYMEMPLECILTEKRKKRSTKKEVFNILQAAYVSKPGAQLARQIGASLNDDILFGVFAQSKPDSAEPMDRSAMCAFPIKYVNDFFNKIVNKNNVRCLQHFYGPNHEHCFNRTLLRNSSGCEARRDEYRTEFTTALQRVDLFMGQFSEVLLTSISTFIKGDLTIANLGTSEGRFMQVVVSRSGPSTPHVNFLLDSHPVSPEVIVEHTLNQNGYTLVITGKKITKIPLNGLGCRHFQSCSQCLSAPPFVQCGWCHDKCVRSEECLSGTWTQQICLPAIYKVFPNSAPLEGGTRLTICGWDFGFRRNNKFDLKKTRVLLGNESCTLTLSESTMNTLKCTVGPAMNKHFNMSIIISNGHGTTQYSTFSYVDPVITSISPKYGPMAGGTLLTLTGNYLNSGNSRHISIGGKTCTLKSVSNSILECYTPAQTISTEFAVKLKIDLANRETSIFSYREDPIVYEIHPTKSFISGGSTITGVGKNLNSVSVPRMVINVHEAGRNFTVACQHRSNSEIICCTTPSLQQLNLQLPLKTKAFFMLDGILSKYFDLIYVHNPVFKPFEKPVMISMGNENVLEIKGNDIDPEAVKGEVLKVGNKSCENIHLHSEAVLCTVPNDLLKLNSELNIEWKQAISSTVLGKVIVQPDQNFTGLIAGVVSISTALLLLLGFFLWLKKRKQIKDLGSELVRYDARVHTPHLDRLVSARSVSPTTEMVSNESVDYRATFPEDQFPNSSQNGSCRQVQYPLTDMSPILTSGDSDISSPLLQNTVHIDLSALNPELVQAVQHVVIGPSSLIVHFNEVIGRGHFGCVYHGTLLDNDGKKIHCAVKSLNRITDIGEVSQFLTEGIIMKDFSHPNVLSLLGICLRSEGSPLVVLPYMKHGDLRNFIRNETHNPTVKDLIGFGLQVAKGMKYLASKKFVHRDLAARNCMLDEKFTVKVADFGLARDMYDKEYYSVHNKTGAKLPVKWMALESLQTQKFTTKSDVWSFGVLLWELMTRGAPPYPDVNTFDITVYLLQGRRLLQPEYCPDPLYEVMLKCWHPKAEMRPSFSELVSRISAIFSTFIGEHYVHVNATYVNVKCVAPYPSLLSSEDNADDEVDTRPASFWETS
T2 sequence (P42336 whole entry): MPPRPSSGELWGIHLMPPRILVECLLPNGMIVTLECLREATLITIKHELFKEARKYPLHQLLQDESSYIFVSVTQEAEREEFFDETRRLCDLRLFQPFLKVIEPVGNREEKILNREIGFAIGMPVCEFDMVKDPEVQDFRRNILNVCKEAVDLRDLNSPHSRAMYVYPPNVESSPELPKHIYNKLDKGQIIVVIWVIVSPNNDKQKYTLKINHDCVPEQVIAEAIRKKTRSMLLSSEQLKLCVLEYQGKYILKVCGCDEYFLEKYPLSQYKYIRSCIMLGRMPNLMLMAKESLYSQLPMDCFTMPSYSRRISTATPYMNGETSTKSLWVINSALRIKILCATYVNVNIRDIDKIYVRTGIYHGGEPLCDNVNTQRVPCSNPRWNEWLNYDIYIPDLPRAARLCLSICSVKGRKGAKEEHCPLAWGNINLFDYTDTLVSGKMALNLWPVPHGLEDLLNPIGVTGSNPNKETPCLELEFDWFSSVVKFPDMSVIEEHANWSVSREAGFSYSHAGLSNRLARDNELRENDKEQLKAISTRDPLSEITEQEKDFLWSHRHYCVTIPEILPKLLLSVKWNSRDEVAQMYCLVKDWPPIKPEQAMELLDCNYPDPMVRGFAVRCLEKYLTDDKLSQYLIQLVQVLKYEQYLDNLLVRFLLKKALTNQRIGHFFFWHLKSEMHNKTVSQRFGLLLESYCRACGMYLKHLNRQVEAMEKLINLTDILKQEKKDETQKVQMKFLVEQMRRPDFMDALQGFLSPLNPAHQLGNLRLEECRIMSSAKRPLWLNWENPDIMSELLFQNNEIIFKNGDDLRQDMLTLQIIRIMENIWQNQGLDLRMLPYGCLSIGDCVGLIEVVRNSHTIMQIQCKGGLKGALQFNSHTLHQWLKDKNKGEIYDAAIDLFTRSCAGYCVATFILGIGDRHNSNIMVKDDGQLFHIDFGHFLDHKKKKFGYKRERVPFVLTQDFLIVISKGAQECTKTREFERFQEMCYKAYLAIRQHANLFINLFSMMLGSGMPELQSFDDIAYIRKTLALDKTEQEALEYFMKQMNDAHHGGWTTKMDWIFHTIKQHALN
T2 sequence (P27986 whole entry partner): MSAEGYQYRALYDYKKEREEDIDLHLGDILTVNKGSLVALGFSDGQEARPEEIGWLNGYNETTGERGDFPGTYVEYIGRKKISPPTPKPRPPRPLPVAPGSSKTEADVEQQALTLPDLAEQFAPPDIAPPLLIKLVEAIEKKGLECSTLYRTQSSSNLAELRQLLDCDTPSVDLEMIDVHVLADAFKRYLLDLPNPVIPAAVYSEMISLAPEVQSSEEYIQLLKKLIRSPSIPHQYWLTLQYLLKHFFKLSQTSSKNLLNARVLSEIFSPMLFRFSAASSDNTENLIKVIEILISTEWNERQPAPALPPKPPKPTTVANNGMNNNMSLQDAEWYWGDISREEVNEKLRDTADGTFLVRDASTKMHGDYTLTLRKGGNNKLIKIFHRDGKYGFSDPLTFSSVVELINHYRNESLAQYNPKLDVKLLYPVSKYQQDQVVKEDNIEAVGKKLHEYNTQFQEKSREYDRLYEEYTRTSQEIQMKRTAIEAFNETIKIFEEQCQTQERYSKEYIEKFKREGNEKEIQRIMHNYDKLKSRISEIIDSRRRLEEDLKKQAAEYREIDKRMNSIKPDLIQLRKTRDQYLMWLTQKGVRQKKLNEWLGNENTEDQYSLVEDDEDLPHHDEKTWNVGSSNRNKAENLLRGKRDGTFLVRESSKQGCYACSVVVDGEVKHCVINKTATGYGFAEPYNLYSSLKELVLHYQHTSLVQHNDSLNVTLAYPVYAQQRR
T8 sequence (P49137 whole entry): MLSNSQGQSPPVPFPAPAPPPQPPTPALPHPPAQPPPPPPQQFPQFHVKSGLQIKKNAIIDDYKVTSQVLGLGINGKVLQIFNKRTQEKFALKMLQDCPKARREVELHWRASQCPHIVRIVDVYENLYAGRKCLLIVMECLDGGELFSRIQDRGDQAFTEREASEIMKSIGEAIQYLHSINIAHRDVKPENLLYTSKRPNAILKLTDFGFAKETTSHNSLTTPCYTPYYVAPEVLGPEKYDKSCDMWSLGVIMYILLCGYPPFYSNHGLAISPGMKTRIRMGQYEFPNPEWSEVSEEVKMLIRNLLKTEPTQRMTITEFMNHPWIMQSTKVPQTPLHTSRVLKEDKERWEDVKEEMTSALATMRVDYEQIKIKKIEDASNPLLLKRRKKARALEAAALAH
T5 sequence (O14920 whole entry): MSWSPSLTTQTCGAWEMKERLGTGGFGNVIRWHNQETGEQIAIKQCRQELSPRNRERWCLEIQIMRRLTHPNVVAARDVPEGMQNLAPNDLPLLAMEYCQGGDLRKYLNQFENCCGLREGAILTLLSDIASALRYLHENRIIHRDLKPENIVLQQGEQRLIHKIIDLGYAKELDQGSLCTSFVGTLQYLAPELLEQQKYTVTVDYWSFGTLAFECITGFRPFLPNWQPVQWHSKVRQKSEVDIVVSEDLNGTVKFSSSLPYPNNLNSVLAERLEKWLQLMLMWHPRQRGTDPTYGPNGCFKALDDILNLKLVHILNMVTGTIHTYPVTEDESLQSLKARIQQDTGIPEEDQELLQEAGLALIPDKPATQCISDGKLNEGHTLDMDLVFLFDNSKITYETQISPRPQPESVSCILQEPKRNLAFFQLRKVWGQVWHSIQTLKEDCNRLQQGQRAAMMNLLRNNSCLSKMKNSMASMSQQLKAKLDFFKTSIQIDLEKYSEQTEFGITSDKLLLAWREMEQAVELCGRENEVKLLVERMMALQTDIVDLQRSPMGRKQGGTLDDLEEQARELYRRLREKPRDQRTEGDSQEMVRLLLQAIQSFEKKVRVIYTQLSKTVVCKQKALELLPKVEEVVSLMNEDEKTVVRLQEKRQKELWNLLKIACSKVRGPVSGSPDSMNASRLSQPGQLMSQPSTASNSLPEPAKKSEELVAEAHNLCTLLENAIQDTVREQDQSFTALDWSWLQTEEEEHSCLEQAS
T1 sequence (Q16539 whole entry): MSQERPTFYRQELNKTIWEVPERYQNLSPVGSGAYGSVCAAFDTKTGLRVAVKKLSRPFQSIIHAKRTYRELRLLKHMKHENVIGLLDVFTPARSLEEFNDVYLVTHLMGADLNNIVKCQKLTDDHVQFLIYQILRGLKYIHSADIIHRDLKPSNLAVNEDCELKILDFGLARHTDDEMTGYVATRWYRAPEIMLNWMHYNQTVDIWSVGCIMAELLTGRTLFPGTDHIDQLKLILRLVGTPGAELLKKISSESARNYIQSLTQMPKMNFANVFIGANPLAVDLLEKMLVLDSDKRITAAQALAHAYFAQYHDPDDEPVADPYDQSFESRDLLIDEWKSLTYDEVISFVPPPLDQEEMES
T9 sequence (P45983 1-384 isoform P45983-2): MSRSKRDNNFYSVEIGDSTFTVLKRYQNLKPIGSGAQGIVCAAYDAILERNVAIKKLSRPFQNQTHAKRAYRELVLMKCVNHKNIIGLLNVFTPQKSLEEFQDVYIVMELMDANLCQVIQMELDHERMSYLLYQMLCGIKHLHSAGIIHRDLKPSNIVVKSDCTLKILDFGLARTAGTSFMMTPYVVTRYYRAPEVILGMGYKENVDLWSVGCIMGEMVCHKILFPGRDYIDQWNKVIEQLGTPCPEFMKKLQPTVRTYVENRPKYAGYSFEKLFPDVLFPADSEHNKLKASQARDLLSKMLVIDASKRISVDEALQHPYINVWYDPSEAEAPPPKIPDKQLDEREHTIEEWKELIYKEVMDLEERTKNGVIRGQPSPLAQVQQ

Compound: Brc1ccc2[nH]cc(-c3nc4c5ccccc5c5ccccc5c4[nH]3)c2c1 [Compound 45]
- activity at 10 µM [1]: 62%
- activity at 10 µM [2]: 30%
- activity at 10 µM [3]: 76%
- activity at 10 µM [4]: 112%
- activity at 10 µM [5]: 111%
- activity at 10 µM [6]: 22%
- activity at 10 µM [7]: 96%
- activity at 10 µM [8]: 119%
- GI50 [9]: 2 µM
- activity at 10 µM [10]: 85%
- GI50 [11]: 2.6 µM
- activity at 10 µM [12]: 83%
- activity at 10 µM [13]: 91%
- activity at 10 µM [14]: 73%
- viability at 25 µM ([15]; 25 μM compound): 88.9%
- viability at 100 µM ([15]; 100 μM compound): 35%
- activity at 10 µM [16]: 129%
- activity at 10 µM [17]: 87%
- activity at 10 µM [18]: 90%
- activity at 10 µM [19]: 90%
